This is an account of results in US7468369B2, “Sulfonyl pyrrolidines, method for producing the same and their use as drugs” (Sanofi-Aventis, priority 2005, dated 2008).

Structures can show the parent of a compound that is named as a salt.

The subject of one assay is human ABCA1 promoter. Description: ABCA1 promoter test (luciferase reporter in stably transfected THP1 cell line). It counts as cell-based. Particulars: ABCA1 reporter cell line (THP1, PMA-differentiated), 24 h incubation, luciferase chemiluminescence; read-out: E50 ABCA1. Put shortly:
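PMA-differentiated THP1 macrophages stably carrying a 3.2 kb human ABCA1 promoter-luciferase construct, treated 24 h at 37° C with 11 concentrations ([…] to 330 pM, DMSO <0.1%). Luciferase read by luminescence after lysis; EC50 from dose-response plots.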
On the technique in general: A reporter such as luciferase makes a cellular process visible.
In the case of `COc1cccc(S(=O)(=O)N2CC(C(=O)N3CCN(c4cc(C)ccc4C)CC3)C(c3ccsc3)C2)c1` (stereo not drawn) [Example 110, [4-(2,5-Dimethylphenyl)piperazin-1-yl]-[1-(3-methoxybenzenesulfonyl)-3,4-trans-4-thiophen-3-ylpyrrolidin-3-yl]methanone trifluoroacetate], the EC50 came to 914 nM.

Still in this assay, the particulars now being: Homo sapiens, THP-1; ABCA1 reporter cell line (THP1, PMA-differentiated), 24 h incubation, luciferase chemiluminescence; read-out: E50 ABCA1.
As to `Cc1cccc([C@@H]2CN(S(=O)(=O)c3c(C)noc3C)C[C@H]2C(=O)N2CCN(c3cc(C)ccc3C)CC2)c1` [Example 101, [1-(3,5-Dimethylisoxazole-4-sulfonyl)-3,4-trans-4-m-tolylpyrrolidin-3-yl]-[4-(2,5-dimethylphenyl)piperazin-1-yl]methanone trifluoroacetate], the EC50 is 1850 nM.
On the same count and under the same terms, in the case of `COc1cccc(S(=O)(=O)N2C[C@@H](C(=O)N3CCN(c4cc(C)ccc4C)CC3)[C@H](c3cccc(C)c3)C2)c1` [Example 102, [4-(2,5-Dimethylphenyl)piperazin-1-yl]-[1-(3-methoxybenzenesulfonyl)-3,4-trans-4-m-tolylpyrrolidin-3-yl]methanone trifluoroacetate] it was 1050 nM; in that of `COc1cccc(S(=O)(=O)N2C[C@@H](C(=O)N3CCN(c4cc(C)ccc4C)CC3)[C@H](c3c(C)noc3C)C2)c1` [Example 104, [3,4-trans-4-(3,5-Dimethylisoxazol-4-yl)-1-(3-methoxybenzenesulfonyl)-pyrrolidin-3-yl]-[4-(2,5-dimethylphenyl)piperazin-1-yl]methanone trifluoroacetate], 6270 nM.
As for `Cc1ccc(C)c(N2CCN(C(=O)[C@@H]3CN(S(=O)(=O)c4c(C)noc4C)C[C@H]3c3c(C)cccc3C)CC2)c1` [Example 106, [1-(3,5-Dimethylisoxazole-4-sulfonyl)-3,4-trans-4-(2,6-dimethylphenyl)pyrrolidin-3-yl]-[4-(2,5-dimethylphenyl)piperazin-1-yl]methanone trifluoroacetate], the EC50 was 372 nM.
Same read-out and setting: next, `Cc1ccc(C)c(N2CCN(C(=O)[C@@H]3CN(S(=O)(=O)c4c(C)noc4C)C[C@H]3c3cccc4c3OCO4)CC2)c1` [Example 108, [3,4-trans-4-Benzo[1,3]dioxol-4-yl-1-(3,5-dimethylisoxazole-4-sulfonyl)-pyrrolidin-3-yl]-[4-(2,5-dimethylphenyl)piperazin-1-yl]methanone trifluoroacetate]: 585 nM; `Cc1ccc(C)c(N2CCN(C(=O)[C@@H]3CN(S(=O)(=O)c4c(C)noc4C)C[C@H]3c3ccsc3)CC2)c1` [Example 111, [1-(3,5-Dimethylisoxazole-4-sulfonyl)-3,4-trans-4-thiophen-3-ylpyrrolidin-3-yl]-[4-(2,5-dimethylphenyl)piperazin-1-yl]methanone trifluoroacetate]: 867 nM.
Same read-out and setting: in the case of `Cc1ccc(C)c(N2CCN(C(=O)[C@@H]3CN(S(=O)(=O)c4c(C)noc4C)C[C@H]3c3cccnc3)CC2)c1` [Example 112, [1-(3,5-Dimethylisoxazole-4-sulfonyl)-3,4-trans-4-pyridin-3-ylpyrrolidin-3-yl]-[4-(2,5-dimethylphenyl)piperazin-1-yl]methanone trifluoroacetate] it was 14300 nM; in that of `COc1cccc(S(=O)(=O)N2C[C@@H](C(=O)N3CCN(c4cc(C)ccc4C)CC3)[C@H](c3ccoc3)C2)c1` [Example 114, [4-(2,5-Dimethylphenyl)piperazin-1-yl]-[3,4-trans-4-furan-3-yl-1-(3-methoxybenzenesulfonyl)pyrrolidin-3-yl]methanone trifluoroacetate], 2140 nM.
Still for that read-out and setting: in the case of `Cc1ccc(C)c(N2CCN(C(=O)[C@@H]3CN(S(=O)(=O)c4c(C)noc4C)C[C@H]3c3ccoc3)CC2)c1` [Example 115, [1-(3,5-Dimethylisoxazole-4-sulfonyl)-3,4-trans-4-furan-3-ylpyrrolidin-3-yl]-[4-(2,5-dimethylphenyl)piperazin-1-yl]methanone trifluoroacetate] it was 2640 nM; in that of `Cc1ccc(C)c(N2CCN(C(=O)[C@@H]3CN(S(=O)(=O)c4cccnc4)C[C@H]3c3ccoc3)CC2)c1` [Example 116, [4-(2,5-Dimethylphenyl)piperazin-1-yl]-[3,4-trans-4-furan-3-yl-1-(pyridine-3-sulfonyl)pyrrolidin-3-yl]methanone trifluoroacetate], 10800 nM; in that of `Cc1ccc(C)c(N2CCN(C(=O)[C@H]3CN(S(=O)(=O)c4c(C)noc4C)C[C@H]3c3ccccc3)CC2)c1` [Example 118, [1-(3,5-Dimethylisoxazole-4-sulfonyl)-3,4-cis-4-phenylpyrrolidin-3-yl]-[4-(2,5-dimethylphenyl)piperazin-1-yl]methanone trifluoroacetate], 346 nM.
Turning to `COc1cccc(S(=O)(=O)N2C[C@H](C(=O)N3CCN(c4cc(C)ccc4C)CC3)[C@H](c3ccccc3)C2)c1` [Example 119, [4-(2,5-Dimethylphenyl)piperazin-1-yl]-[1-(3-methoxybenzenesulfonyl)-3,4-cis-4-phenylpyrrolidin-3-yl]methanone trifluoroacetate], the EC50 was 177 nM.
The same measure, in the same setting: in the case of `Cc1ccc(C)c(N2CCN(C(=O)[C@H]3CN(S(=O)(=O)c4cccnc4)C[C@H]3c3ccccc3)CC2)c1` [Example 120, [4-(2,5-Dimethylphenyl)piperazin-1-yl]-[3,4-cis-4-phenyl-1-(pyridine-3-sulfonyl)pyrrolidin-3-yl]methanone trifluoroacetate] it was 395 nM.
